According to patent publication US10100030B2 (Kissei Pharmaceutical Co., Ltd., priority 2013, dated 2018):

Key:
hERG channel = hERG channel (Homo sapiens (Human), UniProt Q12809); test: Evaluation of hERG current (whole-cell patch clamp); format: cell-based; settings: 10 μM, application for 10 minutes, n = 3, average ± standard error
Method: Evaluation of hERG Current
The hERG current was measured by a whole-cell method using a patch clamp system, where a cover glass on which hERG channel-expressing human embryonic kidney (HEK) 293 cells were seeded was placed on a perfusion bath and a perfusion solution was caused to flow. The change in the hERG channel-derived current caused by a pulse protocol (holding potential of −80 mV, depolarization pulse of +20 mV for 1.9 seconds, repolarization pulse of −50 mV for 2 seconds, stimulated at intervals of 15 seconds) of data acquisition/analysis software, pCLAMP9 (Axon Instruments, Inc.), was measured. The measurement conditions were a flow rate of about 1.5 mL/min and a temperature of about 33° C. Two wave forms just before applying the test compound and two wave forms immediately after the application for 10 minutes were analyzed, and the statistical analysis was performed. The value before the application of the test compound was regarded as 100%, and the change rate based on the value was determined.
In the table. Ex. No. means the Example number, and the value is the average±the standard error.

human NK1 receptor = human NK1 receptor (Homo sapiens (Human), UniProt P25103); test: Affinity for human NK1 receptor (125I-substance P receptor binding test); settings: membrane fraction of human NK1 receptor-expressing 293T cells; read-out: IC50 (concentration required for 50% inhibition of 125I-substance P binding)
Chain of human NK1 receptor (P25103 whole entry): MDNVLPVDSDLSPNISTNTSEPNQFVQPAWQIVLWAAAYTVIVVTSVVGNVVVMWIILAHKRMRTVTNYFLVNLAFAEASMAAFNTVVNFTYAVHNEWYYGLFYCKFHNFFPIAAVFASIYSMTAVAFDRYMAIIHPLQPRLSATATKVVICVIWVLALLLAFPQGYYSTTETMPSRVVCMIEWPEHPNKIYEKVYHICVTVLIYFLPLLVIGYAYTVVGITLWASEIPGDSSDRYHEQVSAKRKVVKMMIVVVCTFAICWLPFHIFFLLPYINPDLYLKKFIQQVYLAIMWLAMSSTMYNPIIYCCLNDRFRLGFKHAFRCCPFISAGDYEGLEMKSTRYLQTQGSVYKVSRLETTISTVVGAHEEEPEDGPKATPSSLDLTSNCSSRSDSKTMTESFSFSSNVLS
Method: Affinity for Human NK1 Receptor
(3) Measurement of Binding Affinity to Human NK1 Receptor
(3-1) Preparation of Membrane Fraction from Human NK1 Receptor-expressing Cells
Human NK1 receptor-expressing cells were prepared in a 175 cm^2 culture flask (Nippon Becton Dickinson). The formation of a complex of the human NK1 receptor expression plasmid and Lipofectamine 2000 was performed by calculating the culture area ratio and increasing the scale of the method described in the above 2-4 by the ratio. The human NK1 receptor-expressing cells were collected in a buffer solution for the membrane fraction preparation (50 mM Tris (Wako Pure Chemical). 120 mM sodium chloride (Wako Pure Chemical Industries), 5 mM potassium chloride (Wako Pure Chemical Industries), 1 mM ethylenediaminetetraacetic acid (Sigma), 0.002 mg/mL chymostatin (Peptide Institute), 0.04 mg/ bacitracin (Wako Pure Chemical Industries), 0.005 mg/mL phosphoramidon (Peptide Institute) and 0.5 mM phenylmethylsulfonyl fluoride (Wako Pure Chemical Industries), pH7.4) and centrifuged at 1,880 g for 10 minutes, and the cell sediment was suspended in the buffer solution for the membrane fraction preparation. After freezing and thawing the cells once, the cells were homogenized using a Dounce-type homogenizer (cooled on ice, 1000 rpm, 20 times). The homogenized cell suspension was centrifuged at 20,000 rpm for 10 minutes, and the supernatant was removed to obtain cell sediment. The cell sediment was suspended again in the buffer solution for the membrane fraction preparation and homogenized using a Dounce-type homogenizer (cooled on ice, 1000 rpm, 30 times). The cell suspension was centrifuged at 20,000 rpm for 10 minutes, and the supernatant was removed to obtain cell sediment. The same homogenization and centrifugation were repeated again, and final cell sediment was obtained. The final cell sediment was suspended in a buffer solution for the receptor binding test (50 mM Tris (Wako Pure Chemical Industries), 3 mM manganese chloride (Wako Pure Chemical Industries), 0.002 mg/mL chymostatin (Peptide Institute), 0.04 mg/bacitracin (Wako Pure Chemical Industries) and 0.02% bovine serum albumin (Sigma), pH 7.4), and the protein concentration was measured using BCA Protein Assay Kit (Pierce).
(3-2) Receptor Binding Test
The buffer solution for the receptor binding test was dispensed to the wells of a 96-well assay plate (Greiner) at 22.5 μL/well. DMSO solutions of a test compound, which were prepared at an 80-time higher concentration using 100% dimethyl sulfoxide (DMSO), were added to the wells at 2.5 μL/well (final concentrations of 1 nM to 100 nM), and the solutions were mixed. As a radiolabeled ligand, ^125I-substance P (Substance P, [^125I]Tyr^8-, PerkinElmer) was used. ^125I-substance P was diluted with the buffer solution for the receptor binding test to a concentration resulting in […] and added to the 96-well assay plate, and the solutions were mixed. The membrane fraction prepared from the human NK1 receptor-expressing cells was diluted with the buffer solution for the receptor binding test to a concentration resulting in 8 to 10 μg/well, suspended until the suspension became in such a homogenous state that the suspension could flow through as 27G injection needle smoothly and then added to the 96-well assay plate at 150 μL/well. Then, the plate was incubated at room temperature for 60 minutes while shaking the plate. The reaction solutions were suction-filtered. through a multiscreen 96-well filter plate (Millipore) which had been pre-treated with 0.3% polyethyleneimine, and the reaction was terminated by washing with a washing solution (50 mM Tris and 0.02% bovine serum albumin, pH 7.4) four times. The bottom of the microplate was dried at 60° C., and then 100 μL/well of MicroScint 20 (PerkinElmer) was dispensed to the wells. The top of the plate was sealed with TopSeal A (PerkinElmer), and the plate was shaken for 5 to 10 minutes. […]

[1] = Ferret pharmacokinetic test; format: in vivo; settings: plasma, male ferret
Method: Ferret Pharmacokinetic Test
The test compound solution was prepared by dissolving the test compound in a vehicle (50% N,N-dimethylformamide (Wako Pure Chemical Industries), 30% propylene glycol (Wako Pure Chemical Industries) and 4% 2-hydroxypropyl-β-cyclodextrin (Wako Pure Chemical Industries)). Under anesthesia with isoflurane 0.3 mg/kg of the test compound was intravenously administered to a male ferret (Marshall BioResources Japan) from the jugular vein. In the case of oral administration, 1 mg/kg of the test compound was orally administered to an awake animal. After the administration of the test compound, blood samples were taken sequentially from the brachial cephalic vein, and the concentrations of the test compound in the plasma were measured by a quantitative analysis using liquid chromatography-mass spectrometry (LC/MS).
In the tables, Ex. No. means the Example number. CLtot and Vss are the total body clearance and the steady-state volume of distribution, based on the plasma concentrations in the case of intravenous administration, respectively, Cmax, AUC and BA are the maximum plasma test compound concentration, the area under the plasma test compound concentration-time curve and the bioavailability, in the case of oral administration, respectively, […]

CYP3A4 = CYP3A4 (Homo sapiens (Human), UniProt P08684); test: Inhibitory effect on CYP3A4 (Luciferin-IPA); settings: read-out: IC50 (CYP3A4 inhibition); 30-minute pre-incubation group
Chain of CYP3A4 (P08684 whole entry): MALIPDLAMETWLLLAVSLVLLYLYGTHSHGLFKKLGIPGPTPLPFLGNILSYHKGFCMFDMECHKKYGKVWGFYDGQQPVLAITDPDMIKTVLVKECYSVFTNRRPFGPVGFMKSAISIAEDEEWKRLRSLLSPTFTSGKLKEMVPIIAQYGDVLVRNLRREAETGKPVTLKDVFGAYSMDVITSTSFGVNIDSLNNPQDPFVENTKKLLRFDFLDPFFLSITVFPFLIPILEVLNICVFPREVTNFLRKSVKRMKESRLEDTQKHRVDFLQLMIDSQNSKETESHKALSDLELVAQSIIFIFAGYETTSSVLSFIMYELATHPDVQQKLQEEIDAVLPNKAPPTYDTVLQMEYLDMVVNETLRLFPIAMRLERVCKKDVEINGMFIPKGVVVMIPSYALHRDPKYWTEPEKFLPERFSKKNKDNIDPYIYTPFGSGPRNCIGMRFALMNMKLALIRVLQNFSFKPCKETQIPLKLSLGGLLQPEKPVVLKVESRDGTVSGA
Method: Enzyme reaction was performed by incubating in a potassium phosphate buffer solution (pH 7.4) containing 1 nM to 20 μM test compound, 3.2 mM magnesium chloride, 0.2 pmol human CYP3A4 (BD Biosciences), 0.5 mM reduced nicotinamide adenine dinucleotide phosphate (NADPH) and 3 μM Luciferin-IPA (Promega) at 37° C. for 10 minutes. The volume of the reaction solution was 50 μL/well. The 30-minute pre-incubation group was incubated at 37° C. for 30 minutes before adding the substrate, the Luciferin-IPA solution (12.5 μL/well). At the end of the enzyme reaction, 50 μL/well of a Luciferin detection reagent (Promega) was added to the wells, and the plate was left at room temperature for 20 minutes. Then, the emission intensities were measured with Infinite M1000 (TECAN). The enzyme activities (%) relative to the value of the group to which the test compound was not added were calculated.

Chain of hERG channel (Q12809 whole entry): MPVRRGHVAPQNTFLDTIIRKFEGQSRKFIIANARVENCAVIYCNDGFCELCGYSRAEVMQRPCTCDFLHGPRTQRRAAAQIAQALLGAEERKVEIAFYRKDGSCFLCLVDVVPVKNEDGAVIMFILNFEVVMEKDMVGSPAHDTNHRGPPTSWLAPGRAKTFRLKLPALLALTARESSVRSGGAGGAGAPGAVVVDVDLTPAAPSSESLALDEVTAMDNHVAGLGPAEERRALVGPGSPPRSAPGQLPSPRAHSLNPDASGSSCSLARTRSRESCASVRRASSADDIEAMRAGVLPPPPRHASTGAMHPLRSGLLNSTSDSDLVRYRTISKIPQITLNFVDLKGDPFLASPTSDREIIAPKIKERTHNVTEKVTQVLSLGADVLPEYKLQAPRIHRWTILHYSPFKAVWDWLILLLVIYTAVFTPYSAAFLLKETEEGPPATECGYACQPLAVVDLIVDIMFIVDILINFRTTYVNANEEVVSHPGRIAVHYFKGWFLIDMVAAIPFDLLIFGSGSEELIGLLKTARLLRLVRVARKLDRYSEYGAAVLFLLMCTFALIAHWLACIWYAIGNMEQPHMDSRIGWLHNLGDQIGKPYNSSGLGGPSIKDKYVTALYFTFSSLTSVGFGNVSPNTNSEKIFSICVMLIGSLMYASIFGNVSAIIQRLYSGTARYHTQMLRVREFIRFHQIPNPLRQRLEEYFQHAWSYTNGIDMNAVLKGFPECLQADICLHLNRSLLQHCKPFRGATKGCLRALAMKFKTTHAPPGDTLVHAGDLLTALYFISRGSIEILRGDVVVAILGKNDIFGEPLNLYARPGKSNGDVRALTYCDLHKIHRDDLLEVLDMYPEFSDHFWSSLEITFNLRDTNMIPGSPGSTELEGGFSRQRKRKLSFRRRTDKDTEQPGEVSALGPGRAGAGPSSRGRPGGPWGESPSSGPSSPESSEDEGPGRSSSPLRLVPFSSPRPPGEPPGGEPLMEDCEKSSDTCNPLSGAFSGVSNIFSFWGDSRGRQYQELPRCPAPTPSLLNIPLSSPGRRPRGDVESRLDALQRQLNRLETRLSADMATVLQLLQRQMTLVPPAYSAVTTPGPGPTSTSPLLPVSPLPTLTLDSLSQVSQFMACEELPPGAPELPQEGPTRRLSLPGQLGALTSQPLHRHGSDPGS

IC50 (human NK1 receptor): 0.00211 µM | clearance ([1]; 0.3 mg/kg intravenous, read-out: CLtot (total body clearance)): 0.75 mL/min/kg | Vd ([1]; 0.3 mg/kg intravenous, read-out: Vss (steady-state volume of distribution)): 0.336 L/kg | bioavailability ([1]; 1 mg/kg oral, read-out: BA (bioavailability)): 61% | Cmax ([1]; 1 mg/kg oral, read-out: Cmax (maximum plasma test compound concentration)): 1270 ng/mL | IC50 (CYP3A4): 6.2 µM
SMILES: Cc1cc(F)ccc1-c1cc(N2CCC(CC(=O)O)CC2)ncc1N(C)C(=O)C(C)(C)c1cc(C(F)(F)F)cc(C(F)(F)F)c1 [Example 1]
hERG current, % of value before application (hERG channel): 93.9 ± 2.7%
